Each compound was assayed against T1, Muscarinic acetylcholine receptor M2 (Homo sapiens, UniProt P08172) (assay: Muscarinic M2 Receptor Binding Assay).
T1 sequence (P08172 whole entry): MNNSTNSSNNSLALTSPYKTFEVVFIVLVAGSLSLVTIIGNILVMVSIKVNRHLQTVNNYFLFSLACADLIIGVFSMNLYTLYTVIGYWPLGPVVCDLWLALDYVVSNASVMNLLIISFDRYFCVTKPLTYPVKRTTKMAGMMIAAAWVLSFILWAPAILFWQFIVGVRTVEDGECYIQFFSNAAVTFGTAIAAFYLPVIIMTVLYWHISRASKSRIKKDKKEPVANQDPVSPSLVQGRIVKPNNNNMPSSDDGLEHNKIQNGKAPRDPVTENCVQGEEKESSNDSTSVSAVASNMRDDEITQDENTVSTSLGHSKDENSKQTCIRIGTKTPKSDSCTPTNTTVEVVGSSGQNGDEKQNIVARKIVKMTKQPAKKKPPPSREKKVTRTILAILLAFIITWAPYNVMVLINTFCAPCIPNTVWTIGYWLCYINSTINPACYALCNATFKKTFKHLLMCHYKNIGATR
Experimental: Cell membrane homogenates (60 μg protein) were incubated for 60 minutes at 22° C. with 2 nM [3H]AF-DX 384 in the absence or presence of the test compound in a buffer containing 50 mM Tris-HCl (pH 7.4), 120 mM NaCl, 5 mM KCl, 5 mM MgCl2, and 1 mM EDTA. Nonspecific binding was determined in the presence of 1 μM atropine. Following incubation, the samples were filtered rapidly under vacuum through glass fiber filters (GF/B, Packard) presoaked with 0.3% PEI and rinsed several times with ice-cold 50 mM Tris-HCl using a 96-sample cell harvester (Unifilter, Packard). The filters were dried then counted for radioactivity in a scintillation counter (Topcount, Packard) using a scintillation cocktail (Microscint 0, Packard). The results were expressed as a percent inhibition of the control radioligand specific binding, from which the Ki was calculated. Data were analyzed using software developed at Cerep (Hill software) and validated by comparison with data generated by the commercial software SigmaPlot 4.0 for Windows ( 1997 by SPSS Inc.).

| Ki [nM] | SMILES |
| --- | --- |
| 6700 | CCN(C(=O)c1cc(F)ccc1-n1c(C)c(C(=O)C2CCN(C(=O)[C@H]3NC[C@@H]4C[C@@H]43)CC2)c2ccncc21)C(C)C (single isomer, unassigned) [US20240335431, Example 48-1] |

Each compound was assayed against T2, Menin (Homo sapiens, UniProt O00255) (assay: Fluorescence Polarization (FP) Assay).
T2 sequence (O00255 whole entry): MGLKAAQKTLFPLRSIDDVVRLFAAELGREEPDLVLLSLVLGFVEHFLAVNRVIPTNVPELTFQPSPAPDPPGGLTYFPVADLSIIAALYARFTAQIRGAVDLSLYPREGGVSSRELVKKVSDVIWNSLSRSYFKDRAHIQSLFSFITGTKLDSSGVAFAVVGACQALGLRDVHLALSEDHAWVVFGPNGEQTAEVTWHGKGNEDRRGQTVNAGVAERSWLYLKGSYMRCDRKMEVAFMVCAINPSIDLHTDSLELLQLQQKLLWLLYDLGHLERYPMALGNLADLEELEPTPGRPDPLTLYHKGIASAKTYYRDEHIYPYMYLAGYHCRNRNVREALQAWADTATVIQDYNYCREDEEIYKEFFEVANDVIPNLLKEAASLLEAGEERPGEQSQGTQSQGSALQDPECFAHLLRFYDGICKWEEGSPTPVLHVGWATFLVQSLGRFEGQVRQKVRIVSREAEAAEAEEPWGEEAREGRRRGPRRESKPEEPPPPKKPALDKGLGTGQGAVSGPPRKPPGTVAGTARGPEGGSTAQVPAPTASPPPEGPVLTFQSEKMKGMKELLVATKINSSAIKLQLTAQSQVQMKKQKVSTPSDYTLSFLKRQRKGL
Experimental: Compounds were tested in a biochemical binding assay using Menin protein at 2 nM (N6his-tev-Menin_4i80, PB-20-1459) and the substrate cRho110-Ahx-MBM1/MBM2 peptide (UbiQ, UbiQ-Q20201030; cRh110-Ahx-[…]-QRVPALLLPPG-NH2) at 1 nM.384 Low volume black plates (Corning #4514) were used. 5 μL/well compound or 3% DMSO was added at 10-fold serial dilutions in DMSO from 10 μM. 5 μL/well cRho110-Ahx-MBM1/MBM2 peptide or binding buffer (50 mM Tris pH 7.5, 50 mM NaCl, 1 mM TCEP, 0.01% BGG, 0.01% Brij-35) was added to all wells. 5 μL/well Menin protein or binding buffer (50 mM Tris pH 7.5, 50 mM NaCl, 1 mM TCEP, 0.01% BGG, 0.01% Brij-35) was added to all wells. Plates were read on an EnVision plate reader (Perkin Elmer) with excitation at 480 nm and emission at 535 nm P+S, and measured every 5 minutes for 180 minutes.

| SMILES | IC50 [nM] |
| --- | --- |
| C[C@@H]1COC[C@H](C)N1C(=O)c1cc(F)ccc1-n1cc(C(=O)C2CCN(C(=O)[C@H]3N[C@@H]4CC[C@H]3C4)CC2)c2ccncc21 [US20240335431, Example 35] | 97 |
| CC(C)n1nccc1-c1cc(F)ccc1-n1cc(C(=O)C2CCN(C(=O)[C@H]3N[C@@H]4CC[C@H]3C4)CC2)c2ccncc21 [US20240335431, Example 36] | 24 |
| CC(C)c1ncncc1-c1cc(F)ccc1-n1cc(C(=O)C2CCN(C(=O)[C@H]3N[C@@H]4CC[C@H]3C4)CC2)c2ccncc21 [US20240335431, Example 37] | 9 |
| CC(C)c1ncccc1-c1cc(F)ccc1-n1cc(C(=O)C2CCN(C(=O)[C@H]3N[C@@H]4CC[C@H]3C4)CC2)c2ccncc21 [US20240335431, Example 38] | 13 |
| CC(C)c1ccccc1-c1cc(F)ccc1-n1cc(C(=O)C2CCN(C(=O)[C@H]3N[C@@H]4CC[C@H]3C4)CC2)c2ccncc21 [US20240335431, Example 39] | 7 |
| O=C(c1cn(-c2ccc(F)cc2-c2cncnc2C2CC2)c2cnccc12)C1CCN(C(=O)[C@H]2N[C@@H]3CC[C@H]2C3)CC1 [US20240335431, Example 40] | 18 |
| CC(C)c1ccncc1-c1cc(F)ccc1-n1cc(C(=O)C2CCN(C(=O)[C@H]3N[C@@H]4CC[C@H]3C4)CC2)c2ccncc21 [US20240335431, Example 41] | 10 |
| CC(C)c1ncsc1-c1cc(F)ccc1-n1cc(C(=O)C2CCN(C(=O)[C@H]3N[C@@H]4CC[C@H]3C4)CC2)c2ccncc21 [US20240335431, Example 42] | 9 |
| CC(C)N(C(=O)c1cc(F)ccc1-n1cc(C(=O)C2CCN(C(=O)[C@H]3N[C@@H]4CC[C@H]3C4)CC2)c2c(F)cncc21)C(C)C [US20240335431, Example 44] | 58 |
| Cc1c(C(=O)C2CCN(C(=O)[C@H]3NC[C@@H]4C[C@@H]43)CC2)c2ccncc2n1-c1ccc(F)cc1-c1cnccc1C(C)C [US20240335431, Example 54] | 15 |

Results, then the compound that gave them:

| IC50 [nM] | SMILES |
| --- | --- |
| 1970 | CCN(C(=O)c1cc(F)ccc1-n1c(C)c(C(=O)C2CCN(C(=O)[C@H]3NC[C@@H]4C[C@@H]43)CC2)c2ccncc21)C(C)C (single isomer, unassigned) [US20240335431, Example 48-1] |
| 34 | CCN(C(=O)c1cc(F)ccc1-n1c(C)c(C(=O)C2CCN(C(=O)[C@H]3N[C@@H]4CC[C@H]3C4)CC2)c2ccncc21)C(C)C [US20240335431, Example 46] |
| 15 | CCN(C(=O)c1cc(F)ccc1-n1c(C)c(C(=O)C2CCN(C(=O)[C@H]3NC[C@@H]4C[C@@H]43)CC2)c2ccncc21)C(C)C [US20240335431, Example 47] |
| 105 | Cc1c(C(=O)C2CCN(C(=O)[C@@H]3CC[C@H](C)N3)CC2)c2ccncc2n1-c1ccc(F)cc1C(=O)N(C(C)C)C(C)C [US20240335431, Example 60] |
| 76 | Cc1c(C(=O)[C@@H]2CCN(C(=O)[C@@H]3CC[C@H](C)N3)[C@@H](C)C2)c2ccncc2n1-c1ccc(F)cc1C(=O)N(C(C)C)C(C)C [US20240335431, Example 62] |
| 59 | CCN(C(=O)c1cc(F)ccc1-n1c(C)c(C(=O)[C@@H]2CCN(C(=O)[C@@H]3CC[C@H](C)N3)[C@@H](C)C2)c2ccncc21)C(C)C [US20240335431, Example 63] |
| 84 | Cc1c(C(=O)[C@@H]2CCN(C(=O)[C@@H]3CC[C@@H](C)N3)[C@@H](C)C2)c2ccncc2n1-c1ccc(F)cc1C(=O)N(C(C)C)C(C)C [US20240335431, Example 64] |
| 79 | CCN(C(=O)c1cc(F)ccc1-n1c(C)c(C(=O)[C@@H]2CCN(C(=O)[C@@H]3CC[C@@H](C)N3)[C@@H](C)C2)c2ccncc21)C(C)C [US20240335431, Example 65] |

Source: BindingDB's records for patent US20240335431 (Acerta Pharma, 2024)
